Target: T1, human α4β7 integrin (Homo sapiens, UniProt P13612+P26010)
T1 construct: expressed in transfected cells; host or cells: K562 cells, stably transfected
T1 sequence (P13612 34-1032): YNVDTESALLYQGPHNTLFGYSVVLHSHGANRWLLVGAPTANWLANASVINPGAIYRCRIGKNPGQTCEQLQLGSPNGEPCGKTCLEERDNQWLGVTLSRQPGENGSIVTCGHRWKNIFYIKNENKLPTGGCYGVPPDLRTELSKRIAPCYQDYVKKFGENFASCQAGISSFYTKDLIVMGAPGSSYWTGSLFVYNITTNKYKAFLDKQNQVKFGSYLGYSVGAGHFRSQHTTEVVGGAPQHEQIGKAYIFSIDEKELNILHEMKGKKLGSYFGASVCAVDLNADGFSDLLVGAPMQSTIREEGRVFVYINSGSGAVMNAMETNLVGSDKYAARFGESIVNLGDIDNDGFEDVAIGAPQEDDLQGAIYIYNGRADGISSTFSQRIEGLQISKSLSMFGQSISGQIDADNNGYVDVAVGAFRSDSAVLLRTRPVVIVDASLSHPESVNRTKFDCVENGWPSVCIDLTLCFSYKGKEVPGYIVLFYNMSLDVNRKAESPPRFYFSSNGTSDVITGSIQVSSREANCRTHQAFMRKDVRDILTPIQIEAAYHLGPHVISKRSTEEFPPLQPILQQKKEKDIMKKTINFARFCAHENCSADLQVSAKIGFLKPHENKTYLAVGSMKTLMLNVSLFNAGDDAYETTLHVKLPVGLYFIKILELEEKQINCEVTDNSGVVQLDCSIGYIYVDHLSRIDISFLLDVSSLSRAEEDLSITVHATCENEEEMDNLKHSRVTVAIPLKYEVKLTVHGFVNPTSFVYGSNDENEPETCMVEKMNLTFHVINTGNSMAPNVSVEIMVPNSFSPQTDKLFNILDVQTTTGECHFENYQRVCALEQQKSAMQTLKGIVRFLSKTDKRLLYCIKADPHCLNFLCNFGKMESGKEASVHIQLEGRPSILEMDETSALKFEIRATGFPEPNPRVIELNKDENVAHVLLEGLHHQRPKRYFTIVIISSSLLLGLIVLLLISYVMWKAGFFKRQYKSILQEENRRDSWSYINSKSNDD
T1 sequence (P26010 20-798): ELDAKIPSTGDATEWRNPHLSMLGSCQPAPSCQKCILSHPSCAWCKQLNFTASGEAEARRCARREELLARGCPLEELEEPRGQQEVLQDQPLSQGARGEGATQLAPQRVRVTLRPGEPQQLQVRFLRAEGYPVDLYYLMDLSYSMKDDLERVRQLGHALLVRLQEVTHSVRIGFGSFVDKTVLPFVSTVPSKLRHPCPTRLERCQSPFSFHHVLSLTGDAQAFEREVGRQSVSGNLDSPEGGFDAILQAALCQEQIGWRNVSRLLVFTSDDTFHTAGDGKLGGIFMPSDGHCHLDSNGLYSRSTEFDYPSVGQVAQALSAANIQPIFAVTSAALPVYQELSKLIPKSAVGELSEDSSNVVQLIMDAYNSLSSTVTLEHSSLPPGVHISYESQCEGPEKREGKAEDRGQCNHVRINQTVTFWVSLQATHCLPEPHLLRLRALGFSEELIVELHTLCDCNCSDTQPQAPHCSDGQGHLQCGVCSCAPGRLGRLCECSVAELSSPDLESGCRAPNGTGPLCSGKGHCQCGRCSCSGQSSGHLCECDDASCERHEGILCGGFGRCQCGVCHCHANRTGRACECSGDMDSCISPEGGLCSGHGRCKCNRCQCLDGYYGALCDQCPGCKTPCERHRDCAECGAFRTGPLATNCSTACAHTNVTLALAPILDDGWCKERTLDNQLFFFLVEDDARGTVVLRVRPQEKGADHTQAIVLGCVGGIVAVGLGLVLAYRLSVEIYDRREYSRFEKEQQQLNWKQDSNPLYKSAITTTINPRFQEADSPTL
Assay: α4β7-K562 Cell Adhesion Assay (α4β7 Mediated Adhesion/MAdCAM-1)
Format: cell-based
Conditions: α4β7-K562 cell adhesion to hMAdCAM-1; read-out: α4β7 IC50
Procedure, shortened: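 Anti-FLAG plates coated 1 h at 4° C with FLAG-hMAdCAM-1 in PBS pH 7.4, 1% BSA, 1 mM Mn2+. Stably transfected K562 cells expressing human α4β7, labelled with CFDA-SE, adhered with compound 1 h at room temperature. After four washes, bound cells lysed in 0.1 M NaOH for fluorescence read-out.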

IC50 [µM]	Structure (SMILES)
> 5	Cn1ncc(N)c(-c2ccc(C[C@H](NC(=O)c3c(Cl)cccc3Cl)C(=O)OCCO)cc2)c1=O [Cpd 232]
0.008	O=C(N[C@@H](Cc1ccc(-c2c(OCC3CC3)cnn(CCO)c2=O)cc1)C(=O)O)c1c(Cl)cccc1Cl [Cpd 35]
0.003	CNc1cnn(CC(C)=O)c(=O)c1-c1ccc(C[C@H](NC(=O)c2c(Cl)cccc2Cl)C(=O)O)cc1 [Cpd 18]
0.02	O=C(N[C@@H](Cc1ccc(-c2c(N3CCOCC3)cnn(CCO)c2=O)cc1)C(=O)O)c1c(Cl)cccc1Cl [Cpd 61]
0.002	COc1cnn(CCN2CCOCC2)c(=O)c1-c1ccc(C[C@H](NC(=O)c2c(Cl)cccc2Cl)C(=O)O)cc1 [Cpd 10]
0.002	COc1cnn(CCO)c(=O)c1-c1ccc(C[C@H](NC(=O)c2c(Cl)cccc2Cl)C(=O)O)cc1 [Cpd 15, (S)-2-(2,6-Dichloro-benzoylamino)-3{4-[2-(2-hydroxy-ethyl)-5-methoxy-3-oxo-2,3-dihydro-pyridazin-4-yl]-phenyl}-propionic acid]
0.047	COc1cnn(C)c(=O)c1-c1ccc(C[C@H](NC(=O)[C@@H]2C3CCC(CC3)N2C(=O)CCc2ccccc2)C(=O)O)cc1 [Cpd 89, 3-[4-(5-Methoxy-2-methyl-3-oxo-2,3-dihydro-pyridazin-4-yl)-phenyl]-2(S)-{[2-(3-phenyl-propionyl)-2-aza-bicyclo[2.2.2]octane-3(S)-carbonyl]-amino}-propionic acid]
0.013	Cn1ncc(N)c(-c2ccc(C[C@H](NC(=O)c3c(Cl)cccc3Cl)C(=O)O)cc2)c1=O [Cpd 46]
1.37	COc1cnn(CCO)c(=O)c1-c1ccc(C[C@H](NC(=O)c2c(Cl)cccc2Cl)C(=O)OCCO)cc1 [Cpd 199]
0.006	O=C(N[C@@H](Cc1ccc(-c2c(OCc3cccnc3)cnn(CCO)c2=O)cc1)C(=O)O)c1c(Cl)cccc1Cl [Cpd 30]
0.274	COC(=O)[C@H](Cc1ccc(-c2c(OC)cnn(C)c2=O)cc1)NC(=O)c1c(Cl)cccc1Cl [Cpd 151]
0.001	COc1cnn(CC(N)=O)c(=O)c1-c1ccc(C[C@H](NC(=O)c2c(Cl)cccc2Cl)C(=O)O)cc1 [Cpd 5]
0.113	COc1cnn(CCO)c(=O)c1-c1ccc(C[C@H](NC(=O)OC(C)(C)C)C(=O)O)cc1 [Cpd 120]
2.69	COc1cnn(C)c(=O)c1-c1ccc(C[C@H](NC(=O)c2c(Cl)cccc2Cl)C(=O)OCC(C)(C)C)cc1 [Cpd 207]
0.002	COc1cnn(CC(=O)O)c(=O)c1-c1ccc(C[C@H](NC(=O)c2c(Cl)cccc2Cl)C(=O)O)cc1 [Cpd 11]
